What was measured:
T cells = assay: T cell proliferation of anti-CD3/anti-CD28 activated PBMCs in the presence of AMP; format: cell-based, human; conditions: 500 nM antibody, 13 donors
Procedure: FIG. 12A: CD73 catalytic activity was measured with MDA-MB-231 cells or MDA-MB-231 CD73 CRISPR cells in the presence of CPI-006, oleclumab, or 1 mM APCP by adding 250 μM AMP and measuring phosphate levels in the cell culture supernatant. FIG. 12B: Human PBMCs were incubated with AMP in the presence of CPI-006, oleclumab, or isotype control antibody at the saturating concentration of 300 nM. After 4 hours of incubation, the AMP remaining in the supernatant was quantified using the CellTiterGlo assay as described in the Methods. Percentage of inhibition was plotted. Data represent 9 individual donors and error bars represent mean±SD. ****p<0.0001 as determined by t-test. FIG. 12C: Human PBMCs were activated with anti-CD3/anti-CD28 in the presence of AMP and a range of doses of CPI-006, oleclumab, or isotype control antibody. T cell proliferation was assessed by flow cytometry. T cell proliferation for 13 donors treated with 500 nM CPI-006 or oleclumab or 890 nM isotype control. Error bars represent mean±SD. *p<0.05, ***p<0.001, and ****p<0.0001 as determined by t-test. […] After 4 days in culture, IFNg levels in the supernatant were measured by AlphaLISA (Perkin Elmer). […] Error bars represent mean±SD. *p<0.05 and **p<0.01 as determined by t-test. […]

B lymphocytes = assay: B cell activation and maturation markers by flow cytometry in vitro; format: cell-based, human
Procedure: FIG. 6 are bar graphs showing CPI-006 directly activates B lymphocytes. Purified B cells were incubated overnight with 10 μg/mL human IgG1 isotype control or CPI-006 or anti-IgM microbeads, a positive control for BCR stimulation. Expression of activation markers CD69, CD83, CD86, CD25 or MHC-II was measured by flow cytometry. Mean fluorescence intensity (MFI) was determined for each activation marker and was normalized to the untreated condition for each donor. The figure legend from top to bottom is representative of each group of four bars from left to right. (N=3-5 donors).
FIG. 7 illustrates expression of CD69 on B cells (CD19+CD3−) as measured by flow cytometry and reported by MFI. Human PBMCs were incubated overnight with 10 μg/mL CPI-006 with or without NECA over a range of concentrations or 10 μM APCP. Expression of CD69 on B cells (CD19+CD3−) was measured by flow cytometry and MFI is reported. Error bars represent mean±SD. *p<0.05, **p<0.01 as determined by t-test.
Human B cells were stimulated in vitro with CPI-006 or CPX-016 (1 ug/ml) or an isotype control for 3 days. IgD and CD27 expression were evaluated by flow cytometry. The mean fluorescence intensity (MFI) of each marker was determined in FlowJo and normalized to CPX-016. N=3 donors shown. For each group of two bars, left bar represents treatment with […] and right bar represents treatment with CPX-006.
FIG. 13A: Purified B cells from 3-5 healthy donors were incubated overnight with human IgG1 isotype control or CPI-006 (10 μg/mL) or anti-IgM microbeads, a positive control for BCR stimulation. Expression of activation markers CD69, CD83, CD86, or MHC-II was measured by flow cytometry. […] Mean fluorescence intensity (MFI) was determined for each marker and was normalized to the untreated or isotype control for each donor. […] Expression of CD69 (MFI) was measured by flow cytometry. […] CD69 and CD73 were measured on B cells by flow cytometry. […] Expression of CD69 on B cells (CD19^POSCD3^NEG) was measured by flow cytometry. […]

cellular CD73 = molecular target: T1, cellular CD73 (Homo sapiens, UniProt P21589); assay: CD73 catalytic activity on MDA-MB-231 cells (phosphate released from AMP); conditions: 250 μM AMP, baseline from CRISPR CD73 knockout cells and 1 mM APCP
T1 sequence (P21589 27-549): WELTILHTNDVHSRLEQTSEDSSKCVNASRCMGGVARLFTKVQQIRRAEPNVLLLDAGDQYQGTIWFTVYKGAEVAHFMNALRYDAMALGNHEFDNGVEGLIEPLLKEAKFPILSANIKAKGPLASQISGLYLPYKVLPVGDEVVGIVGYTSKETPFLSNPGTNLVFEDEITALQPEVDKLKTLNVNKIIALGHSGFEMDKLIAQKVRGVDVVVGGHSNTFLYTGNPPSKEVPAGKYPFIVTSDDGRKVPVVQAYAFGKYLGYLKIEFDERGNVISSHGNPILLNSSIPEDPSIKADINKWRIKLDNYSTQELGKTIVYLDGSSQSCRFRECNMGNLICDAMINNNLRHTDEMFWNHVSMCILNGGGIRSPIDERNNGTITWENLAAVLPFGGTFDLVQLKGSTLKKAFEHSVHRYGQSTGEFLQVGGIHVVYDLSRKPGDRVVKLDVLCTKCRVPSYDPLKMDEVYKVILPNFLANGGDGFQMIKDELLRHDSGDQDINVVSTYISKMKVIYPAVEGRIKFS

[1] = molecular target: T2, CD73 expressed on primary human peripheral blood mononuclear cells (Homo sapiens, UniProt P21589); assay: CD73 enzymatic activity on primary human PBMCs (AMP remaining, CellTiterGlo); conditions: 300 nM antibody, 4 hours incubation with AMP, 9 donors
T2 sequence (P21589 27-549): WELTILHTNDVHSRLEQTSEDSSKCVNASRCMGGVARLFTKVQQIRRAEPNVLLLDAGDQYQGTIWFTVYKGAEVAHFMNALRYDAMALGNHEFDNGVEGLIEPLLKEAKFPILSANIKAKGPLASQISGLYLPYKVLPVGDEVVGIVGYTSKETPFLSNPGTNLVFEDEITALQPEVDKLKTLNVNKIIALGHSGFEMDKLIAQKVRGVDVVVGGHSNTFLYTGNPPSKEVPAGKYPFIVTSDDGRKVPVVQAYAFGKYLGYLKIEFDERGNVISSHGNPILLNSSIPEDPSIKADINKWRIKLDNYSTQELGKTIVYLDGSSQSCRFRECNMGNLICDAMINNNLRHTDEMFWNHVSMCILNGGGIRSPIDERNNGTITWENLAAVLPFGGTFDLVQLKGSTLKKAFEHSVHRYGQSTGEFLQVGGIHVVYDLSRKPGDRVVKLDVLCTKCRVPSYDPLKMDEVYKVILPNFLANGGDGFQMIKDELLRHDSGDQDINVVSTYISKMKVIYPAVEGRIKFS

[2] = test system: circulating CD73^POS B cells; assay: Phase 1 trial in cancer patients: peripheral blood immunophenotyping by flow cytometry; format: in vivo, human; conditions: ciforadenant monotherapy
human CD73 = molecular target: T3, human CD73 (human, UniProt P21589 27-549); assay: bio-layer interferometry (Octet HTX, 25 C; antibody on anti-human IgG Fc capture sensors, antigen in solution from 300 nM, 1:1 model)
T3 construct: also called CD73 antigen; 5'-nucleotidase
T3 sequence (looked up): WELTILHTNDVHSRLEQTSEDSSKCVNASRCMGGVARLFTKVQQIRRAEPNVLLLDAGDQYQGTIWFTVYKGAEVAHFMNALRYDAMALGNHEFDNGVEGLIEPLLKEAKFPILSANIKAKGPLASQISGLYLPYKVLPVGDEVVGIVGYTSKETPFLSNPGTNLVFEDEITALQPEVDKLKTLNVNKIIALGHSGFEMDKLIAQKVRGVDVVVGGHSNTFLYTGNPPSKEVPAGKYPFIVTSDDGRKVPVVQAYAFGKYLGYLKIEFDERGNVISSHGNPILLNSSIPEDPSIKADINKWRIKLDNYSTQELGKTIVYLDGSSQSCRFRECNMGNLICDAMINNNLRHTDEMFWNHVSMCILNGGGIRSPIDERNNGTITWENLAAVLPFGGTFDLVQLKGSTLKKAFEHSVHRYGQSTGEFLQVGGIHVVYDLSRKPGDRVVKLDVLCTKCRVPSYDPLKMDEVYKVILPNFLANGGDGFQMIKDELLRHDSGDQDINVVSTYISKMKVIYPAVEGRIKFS

## oleclumab: another anti-CD73 antibody that binds a non-overlapping epitope; expressed as human lambda/IgG1-TM antibody
T cells
  T cell proliferation: restored T cell proliferation in a subset of donors but did not reach the magnitude of the CPI-006 response
B lymphocytes; antibodies that do not cross-block CPI-006
  B cell activation (CD69 expression) by other anti-CD73 antibodies: fail to induce activation
Cellular CD73
  CD73 activity (free phosphate levels generated upon conversion of AMP to adenosine): only partially reduced CD73 activity
[1]
  enzymatic activity of CD73 on PBMCs: partial effect on enzymatic activity

## Cc1ccc(-c2nc(N)nc3c2nnn3Cc2cccc(CO[C@H]3CCOC3)n2)o1 [ciforadenant]
[2]
  B cell numbers or immunophenotype: no changes in B cell numbers or immunophenotype

## CCNC(=O)[C@H]1O[C@@H](n2cnc3c(N)ncnc32)[C@H](O)[C@@H]1O [NECA, 5′-(N-ethylcarboxamido)adenosine, reference compound]
B lymphocytes; human PBMCs, CPI-006 10 μg/mL overnight, NECA over a range of concentrations
  effect on induction of activation markers by CPI-006: did not block the induction of activation markers by CPI-006

B1: CPI-006 (antibody, human IgG1, kappa, N297Q, V domains shown)
VH: QVQLVQSGAEVEKPGASVKVSCKASGYTFTSYWITWVRQAPGQGLEWMGDIYPGSGNTNYNEKFKTRVTITADKSTSTAYMELSSLRSEDTAVYYCAKEGGLTTEDYALDYWGQGTLVTVSS
VL: EIVLTQSPATLSLSPGERATLSCRASKNVSTSGYSYMHWYQQKPGQAPRLLIYLASNLESGIPPRFSGSGYGTDFTLTINNIESEDAAYYFCQHSRELPFTFGQGTKVEIKR
Human CD73
  Kd: 0.2 nM

B2: CPI-006 immunoglobulin Fab fragments: Fab fragments of CPI-006 prepared using the Pierce Fab Preparation kit (antibody, chains of the INN, looked up, V domains shown)
VH: QVQLVQSGAEVEKPGASVKVSCKASGYTFTSYWITWVRQAPGQGLEWMGDIYPGSGNTNYNEKFKTRVTITADKSTSTAYMELSSLRSEDTAVYYCAKEGGLTTEDYALDYWGQGTLVTVSS
VL: EIVLTQSPATLSLSPGERATLSCRASKNVSTSGYSYMHWYQQKPGQAPRLLIYLASNLESGIPPRFSGSGYGTDFTLTINNIESEDAAYYFCQHSRELPFTFGQGTKVEIK
modifications: Fab
notes: Fab fragments of CPI-006 prepared using the Pierce Fab Preparation kit
B lymphocytes; purified B cells, overnight, equimolar to 10 μg/mL CPI-006
  expression levels of CD69 with Fab fragments: minimal effect on expression levels of CD69

— patent US20240218073A1, “IMMUNOMODULATORY ANTI-CD73 ANTIBODIES AND USES THEREOF” (Corvus Pharmaceuticals, Inc., priority 2019, published 2024)
